Experiments:
[1] = system: primary human natural killer (NK) cells; settings: cited from earlier work
[2] = system: primary human NK cells (effector) with MV-4-11 target cells; test: Primary human NK cell apoptosis assay, annexin V staining and flow cytometry; format: cell-based; settings: clinically-relevant concentration, morphine 25 ng/mL, two-hour incubation of effector cells; data only in FIG. 1
[3] = system: CAR-NK cells (effector) with MV-4-11 target cells; test: CAR-NK cell apoptosis assay, annexin V staining and flow cytometry; format: cell-based, human; settings: clinically-relevant concentration, morphine 25 ng/mL, two-hour incubation of effector cells; data only in FIG. 1

Structure (SMILES) | primary human NK cell cytotoxicity after preincubation with opioid [1] | effect on primary human NK cell function (ability to induce apoptosis in MV-4-11 cells) [2] | effect on CAR-NK cell function (ability to induce apoptosis in MV-4-11 cells) [3]
C[C@@H](NC(=O)[C@@H](N)Cc1ccc(O)cc1)C(=O)NCC(=O)N(C)[C@@H](Cc1ccccc1)C(=O)NCCO [DAMGO, [D-Ala2, N-Me-Phe4, Gly5-ol]-enkephalin] | reduced | – | –
CCC(=O)C(CC(C)N(C)C)(c1ccccc1)c1ccccc1 (centres unmarked) [methadone] | reduced | – | –
CN1CC[C@]23c4c5ccc(O)c4O[C@H]2[C@@H](O)C=C[C@H]3[C@H]1C5 [morphine] | reduced | functionally inhibited | functionally inhibited

Reference: patent US20220125844A1 (priority 2020, published 2022)
